Earlier results in patent US8613910B2, “Flavonoids as synergists for enhancing the action of self-tanning substances” (Merck Patent GmbH, priority 2005, dated 2013).

Conditions: amongst the hydroxyflavone structures investigated, entire pH range

SMILES: O=c1c(O)c(-c2ccc(O)c(O)c2)oc2cc(O)cc(O)c12 [quercetin, 3,3′,4′,5,7-pentahydroxyflavone]
- antioxidant action: greatest activity
